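Values below derive from 48-hour exposures of cells grown in 96-well plates, with endpoints linearly interpolated between the two concentrations bracketing the appropriate inhibition level. GI50: concentration for 50% inhibition of growth.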 Calls of active or inactive are those of the source. Rule as the data show it: active = GI50 up to about 1.1 µM and inactive = higher.
Legend:
Assay in all cases: NCI-60 cell line screen, 48 h
SW-620 = system: SW-620
MDA-MB-435 = system: MDA-MB-435
A549 = system: A549
OVCAR-3 = system: OVCAR-3
SF-295 = system: SF-295
NCI-H460 = system: NCI-H460
HCT-116 = system: HCT-116
DU-145 = system: DU-145
UACC-257 = system: UACC-257
HOP-62 = system: HOP-62
MOLT-4 = system: MOLT-4
CAKI-1 = system: CAKI-1
HCT-15 = system: HCT-15
TK-10 = system: TK-10
SR = system: SR
SK-MEL-28 = system: SK-MEL-28
KM12 = system: KM12
OVCAR-8 = system: OVCAR-8
CCRF-CEM = system: CCRF-CEM
HL-60 = system: HL-60

Row | Structure (SMILES) | GI50 (SW-620) | GI50 (MDA-MB-435) | GI50 (A549) | GI50 (OVCAR-3) | GI50 (SF-295) | GI50 (NCI-H460) | GI50 (HCT-116) | GI50 (DU-145) | GI50 (UACC-257) | GI50 (HOP-62) | GI50 (MOLT-4) | GI50 (CAKI-1) | GI50 (HCT-15) [µM] | GI50 (TK-10) | GI50 (SR) | GI50 (SK-MEL-28) | GI50 (KM12) | GI50 (OVCAR-8) | GI50 (CCRF-CEM) | GI50 (HL-60)
1 | CC(CCc1nc2ccccc2s1)(c1ccc(O)cc1)c1ccc(O)cc1 | 19.8 µM (inactive) | 16.1 µM (inactive) | 18.3 µM (inactive) | 17.5 µM (inactive) | 15.6 µM (inactive) | 16.4 µM (inactive) | 18.2 µM (inactive) | 17.1 µM (inactive) | 15.3 µM (inactive) | 17.7 µM (inactive) | 12.7 µM (inactive) | 20.6 µM (inactive) | 18.4 | 19.9 µM (inactive) | 13.6 µM (inactive) | 19 µM (inactive) | 15.4 µM (inactive) | 21.7 µM (inactive) |  | 
2 | CC(O)/C=C/C1OC(=O)CC1Nc1ccc(C=O)cc1 (stereo not drawn) | > 100 µM (inactive) | > 100 µM (inactive) | > 100 µM (inactive) | 81.3 µM (inactive) | 28 µM (inactive) | 11.2 µM (inactive) | > 100 µM (inactive) | > 100 µM (inactive) | 48.2 µM (inactive) | 20.9 µM (inactive) | 10.8 µM (inactive) |  | 60.7 | > 100 µM (inactive) | 23.1 µM (inactive) | > 100 µM (inactive) | > 100 µM (inactive) | > 100 µM (inactive) | 15.8 µM (inactive) | 
3 | N#Cc1c(N2CCN(c3ccc([N+](=O)[O-])cc3)CC2)[n+]([O-])c2ccc(Cl)cc2[n+]1[O-] | 0.646 µM (active) | 1.8 µM (inactive) | 2.02 µM (inactive) | 0.745 µM (active) | 1.91 µM (inactive) | 0.0644 µM (active) | 0.427 µM (active) | 2.16 µM (inactive) | 2.65 µM (inactive) | 0.521 µM (active) | 1.18 µM (inactive) | 0.489 µM (active) | 0.627 | 2.54 µM (inactive) | 0.016 µM (active) | 4.52 µM (inactive) | 1.7 µM (inactive) | 1.11 µM (active) | 0.29 µM (active) | 
4 | O=C1NC(c2cccc3ccccc23)Nc2ccc(Cl)cc21 (stereo not drawn) | 0.00168 µM (active) | < 0.0001 µM (active) | 0.00509 µM (active) | 0.0016 µM (active) | 0.000516 µM (active) | 0.0038 µM (active) | 0.000912 µM (active) | 0.00452 µM (active) |  | 0.00261 µM (active) | 0.00174 µM (active) | 0.00118 µM (active) | 0.0018 |  | 0.000229 µM (active) | < 0.01 µM (active) | 0.0022 µM (active) | 0.00935 µM (active) | 0.000618 µM (active) | 0.000133 µM (active)
5 | N=c1oc2cc(O)ccc2cc1C(=O)NCc1ccccc1 | 22.6 µM (inactive) | 17.7 µM (inactive) | 31.8 µM (inactive) | 22.6 µM (inactive) | 35.2 µM (inactive) | 25.8 µM (inactive) | 22.2 µM (inactive) | 16.6 µM (inactive) | 44.7 µM (inactive) | 31.1 µM (inactive) | 15.7 µM (inactive) | 20.3 µM (inactive) | 27.2 | 32.1 µM (inactive) | 11.9 µM (inactive) | 27.6 µM (inactive) | 32.3 µM (inactive) | 27.4 µM (inactive) | 9.42 µM (inactive) | 
6 | Cc1cccc(Nc2nc(NNC(=O)Cc3ccccc3)nc(NNC(=O)c3ccncc3)n2)c1 | > 10 µM (inactive) | > 10 µM (inactive) | > 10 µM (inactive) |  | > 10 µM (inactive) | > 10 µM (inactive) | > 10 µM (inactive) | > 10 µM (inactive) | > 10 µM (inactive) | > 10 µM (inactive) | > 10 µM (inactive) | > 10 µM (inactive) | > 10 | > 10 µM (inactive) | > 10 µM (inactive) | > 10 µM (inactive) | > 10 µM (inactive) | > 10 µM (inactive) | > 10 µM (inactive) | > 10 µM (inactive)
7 | CNC(=O)OCC1=C(COC(=O)NC)C(C)N(c2ccccc2)C1 (stereo not drawn) | 46.1 µM (inactive) | 38.3 µM (inactive) | 48 µM (inactive) | 30.4 µM (inactive) | 33.7 µM (inactive) | 29 µM (inactive) | 39.9 µM (inactive) | 54.5 µM (inactive) | 35.6 µM (inactive) | 53.6 µM (inactive) | 23 µM (inactive) |  | 31 | 24.5 µM (inactive) | 24.5 µM (inactive) | 35.3 µM (inactive) | 30.5 µM (inactive) | 36.6 µM (inactive) | 37.2 µM (inactive) | 21.7 µM (inactive)
8 | COc1ccc(C(OC(=O)[C@H](O[Si](C)(C)C(C)(C)C)[C@@H](NC(=O)c2ccccc2)c2ccccc2)c2ccc(OC)cc2)cc1 | > 100 µM (inactive) | > 100 µM (inactive) | > 100 µM (inactive) | > 100 µM (inactive) | 3.75 µM (inactive) | > 100 µM (inactive) | > 100 µM (inactive) | > 100 µM (inactive) | > 100 µM (inactive) | > 100 µM (inactive) | 52 µM (inactive) | > 100 µM (inactive) | > 100 | > 100 µM (inactive) | 36.6 µM (inactive) |  | > 100 µM (inactive) | > 100 µM (inactive) | > 100 µM (inactive) | 

— ChEMBL document CHEMBL1201862, “PubChem BioAssay data set” (2004)
